Source: US8404718B2, “Combinations of pyrazole kinase inhibitors” (Astex Therapeutics Limited, priority 2005, dated 2013)
pIC50: −log10 of the molar value. Structures can show the parent of a compound that is named as a salt.

How the values were obtained:
symptomatic CLL patients = settings: initial therapy; cited from earlier work
[1] = tested on: human colon carcinoma cell line HCT 116; experiment: Anti-proliferative activity, Alamar Blue assay; format: cell-based; settings: 72 hours compound incubation, read-out: IC50, inhibition of cell growth, HCT 116
How it was run: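 Cells were allowed to recover for 16 h, then exposed to compounds or combinations for 72 h. Viability was measured by resazurin reduction after 6 h with 10% (v/v) Alamar Blue, read at 535 nm ex/590 […] em. In the non-proliferating format, cells were held at confluence for 96 h before the 72 h treatment.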

CDK2/CyclinA = target: T1, CDK2/CyclinA (Homo sapiens, UniProt P24941); experiment: Measurement of CDK2 kinase inhibitory activity (IC50), Example 248; format: biochemical
T1 construct: purchased Upstate Biotechnology
Procedure: Compounds of the invention were tested for kinase inhibitory activity using either the following protocol or the activated CDK2/cyclin A kinase protocol described in Example 250.
1.7 μl of active CDK2/CyclinA (Upstate Biotechnology, 10 U/μl) is diluted in assay buffer (25.0 μl of 10× strength assay buffer (200 mM MOPS pH 7.2, 250 mM (3-glycerophosphate, 50 mM EDTA, 150 mM MgCl2), 11.27 μl 10 mM ATP, 2.5 μl 1M DTT, 25 μl 100 mM sodium orthovanadate, 708.53 μl H2O), and 10 μl mixed with 10 μl of histone substrate mix (60 μl bovine histone H1 (Upstate Biotechnology, 5 mg/ml), 940 μl H2O, 35 μCi γ^33P-ATP) and added to 96 well plates along with 5 μl of various dilutions of the test compound in DMSO (up to 2.5%). The reaction is allowed to proceed for 5 hours before being stopped with an excess of ortho-phosphoric acid (30 μl at 2%).
(§1) γ^33P-ATP which remains unincorporated into the histone H1 is separated from phosphorylated histone H1 on a Millipore MAPH filter plate. The wells of the MAPH plate are wetted with 0.5% orthophosphoric acid, and then the results of the reaction are filtered with a Millipore vacuum filtration unit through the wells. Following filtration, the residue is washed twice with 200 μl of 0.5% orthophosphoric acid. Once the filters have dried, 25 μl of Microscint 20 scintillant is added, and then counted on a Packard Topcount for 30 seconds.

CDK5/p35 = CDK5/p35 (Homo sapiens, UniProt Q00535); experiment: CDK selectivity assay, CDK5/p35; format: biochemical
Chain of CDK5/p35 (Q00535 whole entry, species assumed): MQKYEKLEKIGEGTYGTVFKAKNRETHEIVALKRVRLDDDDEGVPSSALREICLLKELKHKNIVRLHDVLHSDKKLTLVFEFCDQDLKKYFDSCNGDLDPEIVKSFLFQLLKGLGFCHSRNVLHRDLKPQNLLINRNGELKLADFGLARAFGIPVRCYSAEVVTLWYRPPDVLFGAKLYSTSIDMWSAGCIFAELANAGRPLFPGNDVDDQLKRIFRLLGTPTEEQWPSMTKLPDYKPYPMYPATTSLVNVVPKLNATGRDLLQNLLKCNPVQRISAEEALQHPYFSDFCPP
Chain of CDK5/p35 (Q15078 whole entry partner, species assumed): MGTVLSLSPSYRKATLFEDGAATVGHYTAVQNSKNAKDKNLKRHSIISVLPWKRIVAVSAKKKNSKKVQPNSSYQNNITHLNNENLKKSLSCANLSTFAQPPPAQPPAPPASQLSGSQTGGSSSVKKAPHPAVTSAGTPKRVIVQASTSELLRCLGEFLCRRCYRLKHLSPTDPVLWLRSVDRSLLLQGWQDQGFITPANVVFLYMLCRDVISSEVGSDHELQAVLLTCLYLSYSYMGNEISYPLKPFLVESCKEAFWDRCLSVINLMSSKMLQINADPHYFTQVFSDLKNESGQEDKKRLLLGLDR
Source text: (§2) (specific activity approx 500 cpm/pmol, concentration as required).

CDK1/CyclinB = target: T2, CDK1/CyclinB (Homo sapiens, UniProt P06493); experiment: CDK1/CyclinB assay; format: biochemical; settings: Example 250B protocol or selectivity protocol
T2 construct: purchased Upstate Discovery
T2 sequence (P06493 whole entry): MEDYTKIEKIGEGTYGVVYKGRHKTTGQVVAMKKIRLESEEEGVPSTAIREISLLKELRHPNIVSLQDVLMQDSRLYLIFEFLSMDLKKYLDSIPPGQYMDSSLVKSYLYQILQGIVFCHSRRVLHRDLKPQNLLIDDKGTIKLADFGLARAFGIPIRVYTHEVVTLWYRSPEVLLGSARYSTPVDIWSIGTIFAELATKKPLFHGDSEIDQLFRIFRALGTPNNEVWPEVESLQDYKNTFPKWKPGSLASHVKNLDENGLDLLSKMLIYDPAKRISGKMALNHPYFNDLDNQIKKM
T2 sequence (P14635 whole entry partner): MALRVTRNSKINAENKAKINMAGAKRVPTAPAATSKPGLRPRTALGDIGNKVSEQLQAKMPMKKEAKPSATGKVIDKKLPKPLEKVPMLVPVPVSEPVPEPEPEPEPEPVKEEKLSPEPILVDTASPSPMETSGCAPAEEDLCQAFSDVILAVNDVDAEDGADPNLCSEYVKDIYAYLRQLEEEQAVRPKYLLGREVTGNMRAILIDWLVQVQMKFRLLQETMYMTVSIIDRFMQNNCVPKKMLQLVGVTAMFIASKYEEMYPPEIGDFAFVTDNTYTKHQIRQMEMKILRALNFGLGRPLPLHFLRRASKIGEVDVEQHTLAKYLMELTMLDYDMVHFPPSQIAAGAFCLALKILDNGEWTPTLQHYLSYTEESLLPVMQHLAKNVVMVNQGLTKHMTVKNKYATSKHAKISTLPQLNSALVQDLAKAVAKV
Procedure: as §2
(§3) The reaction is allowed to proceed for 2 to 4 hours before being stopped with an excess of ortho-phosphoric acid (5 μl at 2%).
as §1, with “20” for “25”

Activated CDK2/CyclinA = Activated CDK2/CyclinA (Homo sapiens, UniProt P24941); experiment: Activated CDK2/CyclinA kinase inhibitory activity assay (IC50), Example 250A; format: biochemical
Procedure: Compounds of the invention were tested for kinase inhibitory activity using the following protocol.
as §3
as §1, with “20” for “25”

Solubility of the salt = format: physicochemical
PKG = settings: data published in 2002; cited from earlier work
PKA = settings: data published in 2002; cited from earlier work
OVCAR-3 tumour cells = settings: concentrations of 50 and 100 microM; cited from earlier work
PKC = settings: data published in 2002; cited from earlier work
[2] = clinical studies; cited from earlier work
[3] = Stability and hygroscopicity of the salt; format: physicochemical
Source text: The term ‘stable’ or ‘stability’ as used herein includes chemical stability and solid state (physical) stability. The term ‘chemical stability’ means that the compound can be stored in an isolated form, or in the form of a formulation in which it is provided in admixture with for example, pharmaceutically acceptable carriers, diluents or adjuvants as described herein, under normal storage conditions, with little or no chemical degradation or decomposition. ‘Solid-state stability’ means the compound can be stored in an isolated solid form, or the form of a solid formulation in which it is provided in admixture with, for example, pharmaceutically acceptable carriers, diluents or adjuvants as described herein, under normal storage conditions, with little or no solid-state transformation (e.g. hydration, dehydration, solvatisation, desolvatisation, crystallisation, recrystallisation or solid-state phase transition).

Nc1nc(F)nc2c1ncn2[C@@H]1O[C@H](CO)[C@@H](O)[C@@H]1O [fludarabine]
Duration of progression-free survival (symptomatic CLL patients): 33 months | Rate of complete responses (symptomatic CLL patients): 27%

O=C(NCc1c(Cl)cccc1Cl)c1n[nH]cc1NC(=O)c1c(F)cccc1F [Example 93]
pIC50 [1]: > 4.70 | pIC50 (CDK2/CyclinA): > 3.12

O=C(Nc1ccc(F)cc1)c1n[nH]cc1NC(=O)c1c(F)cccc1F [Example 41, 4-(2,6-Difluoro-benzoylamino)-1H-pyrazole-3-carboxylic acid (4-fluoro-phenyl)-amide]
pIC50 (CDK5/p35): > 4.70 | pIC50 [1]: > 4.70

CN1CCC(NC(=O)c2n[nH]cc2NC(=O)c2cccc3c2OCCO3)CC1 [Example 188]
pIC50 (CDK1/CyclinB): > 4.00 | pIC50 [1]: > 4.70 | pIC50 (Activated CDK2/CyclinA): > 4.70

NC(=O)c1n[nH]cc1-c1ccccc1 [Example 228, 4-Phenyl-1H-pyrazole-3-carboxylic acid amide]
pIC50 (CDK2/CyclinA): > 3.12

O=C(NC1CCNCC1)c1n[nH]cc1NC(=O)c1c(Cl)cccc1Cl [methanesulphonic acid salt, 4-(2,6-dichloro-benzoylamino)-1H-pyrazole-3-carboxylic acid piperidin-4-ylamide]
solubility (Solubility of the salt; pH 4.6, aqueous buffer, acetic acid/sodium acetate buffer, solution pH approximately 4.6): ~35 mg/mL

O=S(=O)(NCCNCC=C(c1ccccc1)c1ccccc1)c1cccc2cnccc12 [NL-71-101]
pIC50 (PKG): 4.44 | pIC50 (PKA): 5.05 | Apoptosis in OVCAR-3 tumour cells (OVCAR-3 tumour cells): induced apoptosis | pIC50 (PKC): 3.98

COc1cccc(OC)c1C(=O)Nc1c[nH]nc1C(=O)NC1CCN(C)CC1 [Example 206]
pIC50 (CDK1/CyclinB): > 4.00 | pIC50 [1]: > 4.00

CCCCCCCCCCCCCCCCCCOP(=O)([O-])OC1CC[N+](C)(C)CC1 [KRX-0401, Perifosine]
Half-life [2]: ~100 h

Cc1ccc(C)n1-c1c[nH]nc1C(=O)Nc1ccc(F)cc1 [Example 235, 4-(2,5-Dimethyl-pyrrol-1-yl)-1H-pyrazole-3-carboxylic acid(4-fluoro-phenyl)-amide]
pIC50 (CDK2/CyclinA): > 3.12

CS(=O)(=O)O.O=C(NC1CCNCC1)c1n[nH]cc1NC(=O)c1c(Cl)cccc1Cl [methanesulphonate salt, 4-(2,6-dichlorobenzoylamino)-1H-pyrazole-3-carboxylic acid piperidin-4-ylamide methanesulphonate]
Hygroscopicity [3]: non-hygroscopicity | Water solubility (Solubility of the salt): excellent

CN1CCN(c2ccc(CNC(=O)c3n[nH]cc3-c3ccc(Cl)cc3Cl)cc2)CC1 [Example 226, 4-(2,4-Dichloro-phenyl)-1H-pyrazole-3-carboxylic acid 4-(4-methyl-piperazin-1-yl)-benzylamide]
pIC50 (CDK2/CyclinA): > 3.12

CC1(C)CC(NC(=O)c2n[nH]cc2NC(=O)c2c(F)cccc2F)CC(C)(C)N1 [Example 88]
pIC50 (CDK2/CyclinA): > 3.12

CN1CCN(c2ccc(CNC(=O)c3n[nH]cc3-c3ccccc3)cc2)CC1 [Example 230, 4-Phenyl-1H-pyrazole-3-carboxylic acid 4-(4-methyl-piperazin-1-yl)-benzylamide]
pIC50 (CDK2/CyclinA): > 3.12
